Source: patent US20250195513A1, “DEGRADATION OF IRAK4 BY CONJUGATION OF IRAK4 INHIBITORS WITH E3 LIGASE LIGAND AND METHODS OF USE” (BeiGene, Ltd., priority 2022, published 2025)
Where two headings read alike, the source gives them in different places.

Target: T1, IRAK4 (Homo sapiens, UniProt Q9NWZ3)
T1 construct: endogenous in cells; host or cells: Karpas299
T1 sequence (Q9NWZ3 1-460): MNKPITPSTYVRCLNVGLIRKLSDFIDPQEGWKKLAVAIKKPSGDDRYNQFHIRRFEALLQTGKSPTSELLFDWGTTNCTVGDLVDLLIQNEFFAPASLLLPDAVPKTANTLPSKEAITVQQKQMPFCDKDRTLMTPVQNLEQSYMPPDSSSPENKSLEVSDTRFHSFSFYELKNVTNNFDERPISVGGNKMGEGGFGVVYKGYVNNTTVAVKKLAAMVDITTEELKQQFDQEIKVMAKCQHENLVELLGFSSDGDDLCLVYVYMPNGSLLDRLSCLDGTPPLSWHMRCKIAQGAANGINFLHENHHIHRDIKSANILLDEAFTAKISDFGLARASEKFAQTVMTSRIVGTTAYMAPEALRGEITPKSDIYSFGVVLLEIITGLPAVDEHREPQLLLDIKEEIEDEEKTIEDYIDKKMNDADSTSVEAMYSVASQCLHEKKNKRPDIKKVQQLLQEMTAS
Test: IRAK4 Degradation Assay (Karpas299, HTRF/TR-FRET)
Type: cell-based
How it was run: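 Karpas299 cells at 0.2 million per well were exposed to serially diluted compounds for 24 h or 5 h, then lysed. IRAK4 remaining in lysates was quantified by HTRF (665/620 nm) after overnight antibody incubation at room temperature. Percent degradation was fitted to a four-parameter curve to give IC50 (DC50).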

[1] = Karpas-299 cells, 24 h treatment, maximum percentage of degradation, read-out: IRAK4 in Karpas-299 (24 h) Dmax (%)
[2] = Karpas-299 cells, 24 h treatment, read-out: IRAK4 in Karpas-299 (24 h) DC50
[3] = Karpas-299 cells, 5 h treatment, maximum percentage of degradation, read-out: IRAK4 in Karpas-299 (5 h) Dmax (%)
[4] = Karpas-299 cells, 5 h treatment, read-out: IRAK4 in Karpas-299 (5 h) DC50

Row | Structure (SMILES) | Dmax [1] [%] | DC50 [2] [nM] | DC50 (Degradation (Karpas-299), comparison table, Linker Type B, read-out: Compound (Linker Type B) DC50) [nM] | Dmax (Degradation (Karpas-299), comparison table, Linker Type B, read-out: Compound (Linker Type B) Dmax (%)) [%] | Dmax [3] [%] | DC50 [4] [nM] | DC50 (Degradation (Karpas-299), comparison table, Linker Type A, read-out: Compound (Linker Type A) DC50) [nM] | Dmax (Degradation (Karpas-299), comparison table, Linker Type A, read-out: Compound (Linker Type A) Dmax (%)) [%]
1 | CCC(C)c1cc(-c2nc(C(=O)Nc3cn([C@H]4CC[C@H](N5CCN(C(=O)[C@@H]6CCN(c7cc(F)c([C@H]8CCC(=O)NC8=O)c(F)c7)C6)CC5)CC4)nc3C(F)F)co2)ccn1 (stereo partly drawn) [Example 170, 2-(2-(sec-butyl)pyridin-4-yl)-N-(3-(difluoromethyl)-1-((1R,4r)-4-(4-((R)-1-(4-((R)-2,6-dioxopiperidin-3-yl)-3,5-difluorophenyl)pyrrolidine-3-carbonyl)piperazin-1-yl)cyclohexyl)-1H-pyrazol-4-yl)oxazole-4-carboxamide] | 96 | 6.8 |  |  |  |  |  | 
2 | O=C1CC[C@H](c2c(F)cc(N3CC(C(=O)N4CCN([C@H]5CC[C@H](n6cc(NC(=O)c7coc(-c8ccnc(NCC9CC9)c8)n7)c(C(F)F)n6)CC5)C(=O)C4)C3)cc2F)C(=O)N1 [Example 100, 2-(2-((cyclopropylmethyl)amino)pyridin-4-yl)-N-(3-(difluoromethyl)-1-((1r,4r)-4-(4-(1-(4-((R)-2,6-dioxopiperidin-3-yl)-3,5-difluorophenyl)azetidine-3-carbonyl)-2-oxopiperazin-1-yl)cyclohexyl)-1H-pyrazol-4-yl)oxazole-4-carboxamide] | 97 | 2.2 |  |  |  |  |  | 
3 | CC(C)(O)c1cc2nn(C3CCN([C@H]4CCN(CC5CN(c6cc(F)c([C@H]7CCC(=O)NC7=O)c(F)c6)C5)CC4(F)F)CC3)cc2cc1NC(=O)c1ccc2cc(C#N)cnn12 [Example 197, 3-cyano-N-(2-((S)-1′-((1-(4-((R)-2,6-dioxopiperidin-3-yl)-3,5-difluorophenyl)azetidin-3-yl)methyl)-3′,3′-difluoro-[1,4′-bipiperidin]-4-yl)-6-(2-hydroxypropan-2-yl)-2H-indazol-5-yl)pyrrolo[1,2-b]pyridazine-7-carboxamide] | 96 | 4.8 |  |  |  |  |  | 
4 | CC1(C)OC(c2ccc3cc(C#N)cnn23)=Nc2cc3cn(C4CCN(C5CCN(C(=O)[C@@H]6CCN(c7cc(F)c([C@H]8CCC(=O)NC8=O)c(F)c7)C6)CC5)CC4)nc3cc21 [Example 412, 7-(2-(1′-((R)-1-(4-((R)-2,6-dioxopiperidin-3-yl)-3,5-difluorophenyl)pyrrolidine-3-carbonyl)-[1,4′-bipiperidin]-4-yl)-8,8-dimethyl-2,8-dihydro-[1,3]oxazino[4,5-f]indazol-6-yl)pyrrolo[1,2-b]pyridazine-3-carbonitrile] | 5 | > 10000 |  |  |  |  |  | 
5 | O=C1CCN(c2ccc(N3CCC(N4CCN(C[C@H]5CC[C@H](n6cc(NC(=O)c7coc(-c8ccnc(NCC(F)(F)F)c8)n7)c(C(F)F)n6)CC5)CC4)CC3)cc2)C(=O)N1 [Example 2, N-(3-(difluoromethyl)-1-((1r,4r)-4-((4-(1-(4-(2,4-dioxotetrahydropyrimidin-1(2H)-yl)phenyl)piperidin-4-yl)piperazin-1-yl)methyl)cyclohexyl)-1H-pyrazol-4-yl)-2-(2-((2,2,2-trifluoroethyl)amino)pyridin-4-yl)oxazole-4-carboxamide] | 6.5 | > 10000 |  |  |  |  | > 10000 | 6.5
6 | CC1(C)CN(c2cc(F)c([C@H]3CCC(=O)NC3=O)c(F)c2)C[C@@H]1C(=O)N1CCN([C@H]2CC[C@H](n3cc(NC(=O)c4coc(-c5ccnc(NCC(F)(F)F)c5)n4)c(C(F)F)n3)CC2)CC1 [Example 18, N-(3-(difluoromethyl)-1-((1R,4r)-4-(4-((R)-1-(4-((R)-2,6-dioxopiperidin-3-yl)-3,5-difluorophenyl)-4,4-dimethylpyrrolidine-3-carbonyl)piperazin-1-yl)cyclohexyl)-1H-pyrazol-4-yl)-2-(2-((2,2,2-trifluoroethyl)amino)pyridin-4-yl)oxazole-4-carboxamide] | 97 | 9.7 |  |  | 95 | 100 |  | 
7 | NC(=O)c1nn(-c2ccc(N3CCN(C(=O)C4CN(c5ccc(N6CCC(=O)NC6=O)cc5)C4)CC3)nc2)cc1NC(=O)c1coc(-c2ccnc(NCC(F)(F)F)c2)n1 [Example 28, N-(3-carbamoyl-1-(6-(4-(1-(4-(2,4-dioxotetrahydropyrimidin-1(2H)-yl)phenyl)azetidine-3-carbonyl)piperazin-1-yl)pyridin-3-yl)-1H-pyrazol-4-yl)-2-(2-((2,2,2-trifluoroethyl)amino)pyridin-4-yl)oxazole-4-carboxamide] | 96 | 2.5 |  |  |  |  |  | 

The remaining lines, values ahead:

Row | Dmax [1] [%] | DC50 [2] [nM] | DC50 (Degradation (Karpas-299), comparison table, Linker Type B, read-out: Compound (Linker Type B) DC50) [nM] | Dmax (Degradation (Karpas-299), comparison table, Linker Type B, read-out: Compound (Linker Type B) Dmax (%)) [%] | Dmax [3] [%] | DC50 [4] [nM] | DC50 (Degradation (Karpas-299), comparison table, Linker Type A, read-out: Compound (Linker Type A) DC50) [nM] | Dmax (Degradation (Karpas-299), comparison table, Linker Type A, read-out: Compound (Linker Type A) Dmax (%)) [%] | Structure (SMILES)
8 | 97 | 2.2 |  |  |  |  |  |  | N#Cc1cnn2c(C(=O)Nc3cc4cn([C@H]5CC[C@H](N6CCN(C(=O)C7CN(c8cc(F)c([C@H]9CCC(=O)NC9=O)c(F)c8)C7)CC6)CC5)nc4c4c3OC(F)(F)O4)ccc2c1 [Example 384, 3-cyano-N-(2-((1r,4r)-4-(4-(1-(4-((R)-2,6-dioxopiperidin-3-yl)-3,5-difluorophenyl)azetidine-3-carbonyl)piperazin-1-yl)cyclohexyl)-7,7-difluoro-2H-[1,3]dioxolo[4,5-g]indazol-5-yl)pyrrolo[1,2-b]pyridazine-7-carboxamide]
9 | 100 | 0.4 |  |  |  |  |  |  | O=C1CC[C@H](c2c(F)cc(N3CC(CN4CCN([C@H]5CC[C@H](n6cc(NC(=O)c7csc(-c8cn[nH]c8)n7)c(C(F)F)n6)CC5)CC4)C3)cc2F)C(=O)N1 [Example 435, N-(3-(difluoromethyl)-1-((1r,4r)-4-(4-((1-(4-((R)-2,6-dioxopiperidin-3-yl)-3,5-difluorophenyl)azetidin-3-yl)methyl)piperazin-1-yl)cyclohexyl)-1H-pyrazol-4-yl)-2-(1H-pyrazol-4-yl)thiazole-4-carboxamide]
10 | 98 | 0.67 | 0.67 | 98 | 96 | 5.7 |  |  | O=C1CC[C@H](c2c(F)cc(N3CC(C(=O)N4CCN([C@H]5CC[C@H](n6cc(NC(=O)c7coc(-c8ccnc(NCC(F)(F)F)c8)n7)c(C(F)F)n6)CC5)CC4)C3)cc2F)C(=O)N1 [Example 16, N-(3-(difluoromethyl)-1-((1r,4r)-4-(4-(1-(4-((R)-2,6-dioxopiperidin-3-yl)-3,5-difluorophenyl)azetidine-3-carbonyl)piperazin-1-yl)cyclohexyl)-1H-pyrazol-4-yl)-2-(2-((2,2,2-trifluoroethyl)amino)pyridin-4-yl)oxazole-4-carboxamide]
11 | 100 | 1.7 |  |  | 88 | 12 |  |  | O=C1CCC(c2ccc(N3CC(C(=O)N4CCN([C@H]5CC[C@H](n6cc(NC(=O)c7coc(-c8ccnc(NCC(F)(F)F)c8)n7)c(C(F)F)n6)CC5)CC4)C3)cc2)C(=O)N1 (stereo partly shown) [Example 175, N-(3-(difluoromethyl)-1-((1r,4r)-4-(4-(1-(4-(2,6-dioxopiperidin-3-yl)phenyl)azetidine-3-carbonyl)piperazin-1-yl)cyclohexyl)-1H-pyrazol-4-yl)-2-(2-((2,2,2-trifluoroethyl)amino)pyridin-4-yl)oxazole-4-carboxamide]
12 | 98 | 0.6 |  |  |  |  |  |  | CC(C)(O)c1cc2nn([C@H]3CC[C@H](N4CCN(C(=O)C5CCN(c6cc(F)c([C@H]7CCC(=O)NC7=O)c(F)c6)CC5)CC4)CC3)cc2cc1NC(=O)c1cccc(C(F)(F)F)n1 [Example 47, N-(2-((1r,4r)-4-(4-(1-(4-((R)-2,6-dioxopiperidin-3-yl)-3,5-difluorophenyl)piperidine-4-carbonyl)piperazin-1-yl)cyclohexyl)-6-(2-hydroxypropan-2-yl)-2H-indazol-5-yl)-6-(trifluoromethyl)picolinamide]
13 | 102 | 1.3 |  |  | 94 | 12 |  |  | CC(C)(O)c1cc2nc(C3CCN(C4CCN(C(=O)[C@@H]5CCN(c6cc(F)c([C@H]7CCC(=O)NC7=O)c(F)c6)C5)CC4)CC3)cn2cc1NC(=O)c1cccc(C(F)(F)F)n1 [Example 127, N-(2-(1′-((R)-1-(4-((R)-2,6-dioxopiperidin-3-yl)-3,5-difluorophenyl)pyrrolidine-3-carbonyl)-[1,4′-bipiperidin]-4-yl)-7-(2-hydroxypropan-2-yl)imidazo[1,2-a]pyridin-6-yl)-6-(trifluoromethyl)picolinamide]
14 | 95 | 1.1 |  |  |  |  |  |  | COc1cc2nn(C3CCN(C4CN(C(=O)C5CN(c6cc(F)c([C@H]7CCC(=O)NC7=O)c(F)c6)C5)C4)CC3)cc2cc1NC(=O)c1cccc(C(F)(F)F)n1 [Example 41, (R)—N-(2-(1-(1-(1-(4-(2,6-dioxopiperidin-3-yl)-3,5-difluorophenyl)azetidine-3-carbonyl)azetidin-3-yl)piperidin-4-yl)-6-methoxy-2H-indazol-5-yl)-6-(trifluoromethyl)picolinamide]
